# Results published in publication PMC6136390, “Coptisine-induced inhibition of Helicobacter pylori: elucidation of specific mechanisms by probing urease active site and its maturation process” (Journal of Enzyme Inhibition and Medicinal Chemistry, 2018).
# Like-named read-outs stand apart in the source and are kept apart here.
# Tests used:
# [1] = tested on: H. pylori strains; test: Minimal bactericidal concentration assay (broth dilution); format: cell-based, Helicobacter pylori
# Source text: (§1) Fourteen H. pylori strains were used in this study. NCTC 11637 and NCTC 26695 strains were purchased from American Type Culture Collection. Sydney Strain-1 (SS1) was kindly provided by Prof. Richard Ferrero of Monash University, Australia. Clinical isolate ICDC 111001 was provided by Prof. Zhang Jian-zhong of the Chinese Center for Disease Control and Prevention, China. Ten clinical isolates (Hp1868, Hp1869, Hp1870, Hp1871, Hp1872, Hp1873, Hp1874, Hp1875, Hp1876, and Hp1877) were obtained from Renji Hospital, Shanghai Jiaotong University.
# (§2) All strains were cultured in Columbia agar base containing 7% sheep blood at 37 °C in a micro-aerophilic environment (5% O2, 10% CO2, and 85% N2). After 3 days, H. pylori was scraped and suspended in phosphate buffered saline (PBS). Turbidimetry was employed to adjust the concentrations of different H. pylori strains (turbidity equivalent to 1.0 McFarland standard). Crude HPU was obtained according to the method described by Matsubara et al.[42]
# The broth dilution method was used to determine the minimal bactericidal concentrations (MBCs) of coptisine (25, 37.5, 50, 62.5, 75, 100, and 125 μg/mL) against three H. pylori standard strains (SS1, NCTC 11637, and NCTC 26695) and eleven clinical isolates (ICDC 111001, HP 1868, HP 1869, HP 1870, HP 1871 and HP 1872, HP 1873, HP 1874, HP 1875, HP 1876, and HP 1877). In brief, H. pylori suspension (McFarland = 1.0) was exposed to DMSO (control) and coptisine at 2–4 times MIC in BHI with 10% FBS. After shaking at 120 rpm in the tri-gas incubator for 6 h, 100 μL samples were removed and cultured in Columbia blood agar base[43]. MBC was defined as a 99.9% decrease in viability compared with the control. The experiment was repeated twice.
# [2] = target: T1, H. pylori urease (HPU) (Helicobacter pylori, UniProt P69996); test: Urease inhibition assay in vitro (modified Berthelot method); format: biochemical
# T1 construct: Crude HPU was obtained according to the method described by Matsubara et al; endogenous in cells; host or cells: cultured Helicobacter pylori (strain not specified)
# Procedure: as §2
# This assay was performed using the modified Berthelot method (phenol-hypochlorite) in 96 well plates. At the beginning of each reaction, different concentrations of urease solution and 150 mM urea as a substrate were mixed in 20 mM HEPES buffer (pH 7.5) at 37 °C. After a 20-min reaction, urease activity was tested by measuring the concentration of ammonia produced by the reaction at 595 nm using the microplate reader (Thermo Fisher Multiskan FC, Instruments, Inc., USA) at ambient temperature. […] One unit (U) of urease activity was defined as the amount of urease required to catalyse 1 μmol urea per min. […]
# Coptisine’s ability to inhibit urease activity was determined by measuring amounts of ammonia produced using the modified Berthelot method described above. […] Residual activity (RA %) for each assay was calculated using the following equation: RA % = (activity with inhibitors/activity without inhibitors) × 100%. […]
# [3] = tested on: H. pylori strains; test: Minimal inhibitory concentration assay (agar dilution); format: cell-based, Helicobacter pylori
# Source text: as §1, §2
# In this study, different concentrations (12.5, 25, 50, and 100 μg/mL) of berberine, palmatine, epiberberine, jatrorrhizine, and coptisine were used to evaluate antimicrobial activity against the standard H. pylori strain NCTC 11637. The agar dilution method was then used to analyse the antibacterial effects of coptisine against two H. pylori standard strains (SS1 and NCTC 26695) and eleven clinical isolates (ICDC 111001, HP 1868, HP 1869, HP 1870, HP 1871, HP 1872, HP 1873, HP 1874, HP 1875, HP 1876, and HP 1877). In this assay, 100 μL of H. pylori suspension (McFarland = 1.0) was added to the test compound-containing or DMSO-containing (control) Columbia blood agar plate. CLR and MET were used as positive controls in this experiment. Minimum inhibitory concentration (MIC) was defined as the lowest concentration at which no strain growth was observed by visual examination after 3 days. This experiment was repeated twice.
# [4] = clinical isolate HP 1869 (MET resistance), pH = 7.2
# [5] = clinical isolate HP 1870 (CLR and MET resistance), pH = 7.2
# [6] = clinical isolate HP 1871 (MET resistance), pH = 7.2
# [7] = clinical isolate HP 1876 (CLR and MET resistance), pH = 7.2
# T1 sequence (P69996 whole entry): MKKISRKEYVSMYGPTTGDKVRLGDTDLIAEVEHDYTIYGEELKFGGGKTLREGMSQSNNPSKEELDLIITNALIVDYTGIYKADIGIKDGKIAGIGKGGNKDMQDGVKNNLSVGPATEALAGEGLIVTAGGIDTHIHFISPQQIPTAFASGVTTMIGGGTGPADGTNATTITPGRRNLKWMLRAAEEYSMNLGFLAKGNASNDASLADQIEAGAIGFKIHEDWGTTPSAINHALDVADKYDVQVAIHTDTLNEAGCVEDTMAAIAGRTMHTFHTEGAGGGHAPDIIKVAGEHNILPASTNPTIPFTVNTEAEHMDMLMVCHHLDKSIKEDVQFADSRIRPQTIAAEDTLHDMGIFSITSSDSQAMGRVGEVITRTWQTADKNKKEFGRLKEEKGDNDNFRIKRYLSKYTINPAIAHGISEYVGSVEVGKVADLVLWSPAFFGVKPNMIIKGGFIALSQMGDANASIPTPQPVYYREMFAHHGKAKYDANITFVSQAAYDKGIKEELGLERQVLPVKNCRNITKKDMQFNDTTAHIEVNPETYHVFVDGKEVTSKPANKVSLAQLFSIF
# T1 sequence (P14916 whole entry, further chain): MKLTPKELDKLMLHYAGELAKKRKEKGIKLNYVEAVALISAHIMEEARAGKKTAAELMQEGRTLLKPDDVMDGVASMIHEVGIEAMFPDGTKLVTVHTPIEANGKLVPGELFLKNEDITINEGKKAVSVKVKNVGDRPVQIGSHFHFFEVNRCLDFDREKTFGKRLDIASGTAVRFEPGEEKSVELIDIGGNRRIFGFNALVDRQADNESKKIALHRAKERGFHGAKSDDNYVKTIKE
structure (smiles),measurement,setting,value
c1c2c(cc3c1OCO3)-c1cc3ccc4c(c3c[n+]1CC2)OCO4 [Coptisine],MBC,"[1]; Helicobacter pylori, NCTC11637, strain NCTC 11637, pH = 7.2, read-out: MBC",62.5 µg/mL
same,MBC,"[1]; Helicobacter pylori, NCTC26695, strain NCTC 26695, pH = 7.2, read-out: MBC",37.5 µg/mL
same,MBC,"[1]; Helicobacter pylori, clinical isolate HP 1868, pH = 7.2, read-out: MBC",62.5 µg/mL
same,MBC,"[1]; Helicobacter pylori, clinical isolate HP 1869 (MET resistance), pH = 7.2, read-out: MBC",62.5 µg/mL
same,MBC,"[1]; Helicobacter pylori, clinical isolate HP 1870 (CLR and MET resistance), pH = 7.2, read-out: MBC",37.5 µg/mL
same,MBC,"[1]; Helicobacter pylori, clinical isolate HP 1871 (MET resistance), pH = 7.2, read-out: MBC",37.5 µg/mL
same,MBC,"[1]; Helicobacter pylori, clinical isolate HP 1872, pH = 7.2, read-out: MBC",37.5 µg/mL
same,MBC,"[1]; Helicobacter pylori, clinical isolate HP 1873, pH = 7.2, read-out: MBC",75 µg/mL
same,MBC,"[1]; Helicobacter pylori, clinical isolate HP 1874, pH = 7.2, read-out: MBC",100 µg/mL
same,MBC,"[1]; Helicobacter pylori, clinical isolate HP 1875, pH = 7.2, read-out: MBC",75 µg/mL
same,MBC,"[1]; Helicobacter pylori, clinical isolate HP 1876 (CLR and MET resistance), pH = 7.2, read-out: MBC",75 µg/mL
same,MBC,"[1]; Helicobacter pylori, clinical isolate HP 1877, pH = 7.2, read-out: MBC",125 µg/mL
same,MBC,"[1]; Helicobacter pylori, clinical isolate ICDC 111001, pH = 7.2, read-out: MBC",50 µg/mL
same,MBC,"[1]; Helicobacter pylori, strain SS1, pH = 7.2, read-out: MBC",37.5 µg/mL
same,MBC/MIC,[1]; clinical isolate HP 1868,1.25
same,MBC/MIC,[1]; clinical isolate HP 1869,1.25
same,MBC,[1]; [4],62.5 µg/mL
same,MBC/MIC,[1]; clinical isolate HP 1870,1.5
same,MBC,[1]; [5],37.5 µg/mL
same,MBC/MIC,[1]; clinical isolate HP 1871,1.5
same,MBC,[1]; [6],37.5 µg/mL
same,MBC/MIC,[1]; clinical isolate HP 1872,1.5
same,MBC/MIC,[1]; clinical isolate HP 1873,1.5
same,MBC/MIC,[1]; clinical isolate HP 1874,2
same,MBC/MIC,[1]; clinical isolate HP 1875,1.5
same,MBC/MIC,[1]; clinical isolate HP 1876,1.5
same,MBC,[1]; [7],75 µg/mL
same,MBC/MIC,[1]; clinical isolate HP 1877,2.5
same,MBC/MIC,[1]; clinical isolate ICDC 111001,2
same,MBC/MIC,[1]; strain NCTC 11637,2.5
same,MBC/MIC,[1]; strain NCTC 26695,1.5
same,MBC/MIC,[1]; strain SS1,1.5
same,IC50,[2],1780 ± 60 µM
same,MIC,"[3]; Helicobacter pylori, NCTC11637, pH 7.2, standard strain NCTC 11637, pH 7.2",25 µg/mL
same,MIC,"[3]; Helicobacter pylori, NCTC26695, strain NCTC 26695, pH = 7.2",25 µg/mL
same,MIC,"[3]; Helicobacter pylori, clinical isolate HP 1868, pH = 7.2",50 µg/mL
same,MIC,"[3]; Helicobacter pylori, clinical isolate HP 1869 (MET resistance), pH = 7.2",50 µg/mL
same,MIC,"[3]; Helicobacter pylori, clinical isolate HP 1870 (CLR and MET resistance), pH = 7.2",25 µg/mL
same,MIC,"[3]; Helicobacter pylori, clinical isolate HP 1871 (MET resistance), pH = 7.2",25 µg/mL
same,MIC,"[3]; Helicobacter pylori, clinical isolate HP 1872, pH = 7.2",25 µg/mL
same,MIC,"[3]; Helicobacter pylori, clinical isolate HP 1873, pH = 7.2",50 µg/mL
same,MIC,"[3]; Helicobacter pylori, clinical isolate HP 1874, pH = 7.2",50 µg/mL
same,MIC,"[3]; Helicobacter pylori, clinical isolate HP 1875, pH = 7.2",50 µg/mL
same,MIC,"[3]; Helicobacter pylori, clinical isolate HP 1876 (CLR and MET resistance), pH = 7.2",50 µg/mL
same,MIC,"[3]; Helicobacter pylori, clinical isolate HP 1877, pH = 7.2",50 µg/mL
same,MIC,"[3]; Helicobacter pylori, clinical isolate ICDC 111001, pH = 7.2",25 µg/mL
same,MIC,"[3]; Helicobacter pylori, read-out: MICs against eleven clinical isolates, eleven clinical isolates from three sites in China",25 to 50 µg/mL
same,MIC,"[3]; Helicobacter pylori, strain SS1, pH = 7.2",25 µg/mL
same,MIC,[3]; [4],50 µg/mL
same,MIC,[3]; [5],25 µg/mL
same,MIC,[3]; [6],25 µg/mL
same,MIC,[3]; [7],50 µg/mL
same,MIC,"[3]; standard strain NCTC 11637, pH 7.2",25 µg/mL
same,MIC,"[3]; strain NCTC 26695, pH = 7.2",25 µg/mL
same,MIC,"[3]; strain SS1, pH = 7.2",25 µg/mL
